Laboratory results published in patent publication US20120172228A1, “ALCOHOL ALKOXYLATES AS ADJUVANTS FOR AGROCHEMICAL FORMULATIONS” (SYNGENTA CROP PROTECTION, LLC, priority 2009, published 2012).

Tests used:
Assay type in all cases: in vivo
[1] = tested on: chenopodium album (CHEAL); test: Adjuvant with herbicide nicosulfuron on CHEAL; conditions: nicosulfuron 30 or 60 g/ha; adjuvants 0.2% of spray water; 14 and 21 days after application
Experimental: (§1) In this example Sample 13 from Table 1 was compared to the oil adjuvant blend Turbocharge™. The herbicide fomesafen was applied to the weed species xanthium strumarium (XANST), setaria viridis (SETVI), abutilon theophrasti (ABUTH), and chenopodium album (CHEAL) at rates of 60 or 120 grams per hectare, using a laboratory track sprayer. Each experiment was replicated four times and the percentage damage to the weeds was assessed visually at time periods of 7, 14 and 21 days after application. Each adjuvant was applied at a rate of 0.5% of the volume of the spray water. Four effects were evaluated: pesticide rate (2 levels), adjuvant type (two levels), weed species (four levels) and days after application (three levels). […] The effect of each adjuvant was pulled out from the model and the least significant differences evaluated using a Student's t method. […]
(§2) In this example the butylene oxide adjuvant Sample 13 of Table 1 was compared to the commercial oil adjuvant blend Atplus™411F. […] Each experiment was replicated four times and the percentage damage to the weeds was assessed visually at time periods of 14 and 21 days after application. […]
(§3) In this example the responses of the butylene oxide adjuvants 13, 17, 19, 21, 22 and 23 of Table 1 were measured at an application rate of 0.2% of the volume of the spray solution used. […]

[2] = tested on: alopecurius myosuirides (ALOMY); test: Adjuvant with herbicide pinoxaden on ALOMY; conditions: 14 and 21 days
Experimental: as §1
In this example the responses of the adjuvants 13, 17, 19, 21, 22 and 23 were measured at an application rate of 0.2% of the volume of the spray solution used. […] In each case the experiments were replicated four times and the percentage damage to the weeds was assessed visually at time periods of 14 and 21 days after application.
In this example the response of butylene oxide sample 27 of Table 1 was measured at an application rate of 0.2% of the volume of the spray solution used. […]

[3] = tested on: abutilon theophrasti (ABUTH); test: Adjuvant with herbicide nicosulfuron on ABUTH; conditions: nicosulfuron 30 or 60 g/ha; adjuvants 0.2% of spray water; 14 and 21 days after application
Experimental: as §1, §2, §3

[4] = tested on: digitaria sanguinalis (DIGSA); test: Adjuvant with herbicide nicosulfuron on DIGSA; conditions: nicosulfuron 30 or 60 g/ha; adjuvants 0.2% of spray water; 14 and 21 days after application
Experimental: as §1, §2, §3

[5] = tested on: lolium perenne (LOLPE), alopecurius myosuirides (ALOMY), setaria viridis (SETVI), avena fatua (AVEFA); test: Adjuvant with herbicide pinoxaden, track sprayer, mean across four weed species; conditions: pinoxaden 7.5 or 15 g/ha, 14 and 21 days

In the case of CCCCC(CC)COP(=O)(OCC(CC)CCCC)OCC(CC)CCCC (stereo not shown) [TEHP, tris 2-ethylhexyl phosphate], the “mean efficacy (percentage damage to the weeds), CHEAL” value [1] is reported as 68.33; B %, the “mean efficacy (percentage damage to the weeds), ALOMY” value ([2]; pinoxaden 7.5, 11.25 or 15 g/ha, Sample 13 0.2%, TEHP 0.5%) is reported as 43.33; A % and the “mean efficacy (percentage damage to the weeds), ALOMY” value ([2]; pinoxaden 7.5 or 15 g/ha, butylene oxide adjuvants 0.2%, TEHP 0.5% v/v) is reported as 68.75; AB %. The “mean efficacy (percentage damage to the weeds), ABUTH” value [3] was 17.92; B %, the “mean efficacy (percentage damage to the weeds), DIGSA” value [4] was 69.17; A % and the “Mean kill (%)” value ([5]; Sample 28 0.2%, TEHP 0.5%) was 92.6%. The “mean efficacy (percentage damage to the weeds), All weeds” value ([5]; butylene oxide adjuvants 0.2%, TEHP 0.5% v/v) was 75.63; A %.
